What was measured:
Experiment in all cases: relative viability (nuclei count vs DMSO), 5 days (fraction); higher = more cells survive
Trametinib + Dasatinib = compound: CC(=O)Nc1cccc(-n2c(=O)n(C3CC3)c(=O)c3c(Nc4ccc(I)cc4F)n(C)c(=O)c(C)c32)c1 [Trametinib] + Cc1nc(Nc2ncc(C(=O)Nc3c(C)cccc3Cl)s2)cc(N2CCN(CCO)CC2)n1 [Dasatinib] (partner 0.075 µM)
Method in brief: (§1)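 For relative viability, nuclei counts in treated wells were divided by those in vehicle wells. Lung cancer cell lines had been pin-tool dosed in 1536-well plates the day after seeding and cultured for 5 days, then fixed and stained in one step (final 0.05% Triton X-100, 1% formaldehyde, 1 ug/ml Hoechst) and imaged at 4×. Doses were one drug alone or a fixed anchor-drug dose plus five library-drug doses (not always all listed) in √10 steps, and values are duplicate-plate medians.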

Trametinib + Alpelisib = compound: CC(=O)Nc1cccc(-n2c(=O)n(C3CC3)c(=O)c3c(Nc4ccc(I)cc4F)n(C)c(=O)c(C)c32)c1 [Trametinib] + Cc1nc(NC(=O)N2CCC[C@H]2C(N)=O)sc1-c1ccnc(C(C)(C)C(F)(F)F)c1 [Alpelisib] (partner 2 µM)
Method in brief: as §1

Trametinib + Linsitinib = compound: CC(=O)Nc1cccc(-n2c(=O)n(C3CC3)c(=O)c3c(Nc4ccc(I)cc4F)n(C)c(=O)c(C)c32)c1 [Trametinib] + C[C@]1(O)C[C@@H](c2nc(-c3ccc4ccc(-c5ccccc5)nc4c3)c3c(N)nccn32)C1 [Linsitinib] (partner 1 µM)
Method in brief: as §1

Trametinib + Pictilisib = compound: CC(=O)Nc1cccc(-n2c(=O)n(C3CC3)c(=O)c3c(Nc4ccc(I)cc4F)n(C)c(=O)c(C)c32)c1 [Trametinib] + CS(=O)(=O)N1CCN(Cc2cc3nc(-c4cccc5[nH]ncc45)nc(N4CCOCC4)c3s2)CC1 [Pictilisib] (partner 1 µM)
Method in brief: as §1

Cell Line	relative viability (Trametinib + Dasatinib; first compound 0.0025 µM)	relative viability (Trametinib + Dasatinib; first compound 0.007906 µM)	relative viability (Trametinib + Dasatinib; first compound 0.025 µM)	relative viability (Trametinib + Dasatinib; first compound 0.07906 µM)	relative viability (Trametinib + Dasatinib; first compound 0.25 µM)	relative viability (Trametinib + Alpelisib; first compound 0.0025 µM)	relative viability (Trametinib + Alpelisib; first compound 0.007906 µM)	relative viability (Trametinib + Alpelisib; first compound 0.025 µM)	relative viability (Trametinib + Alpelisib; first compound 0.07906 µM)	relative viability (Trametinib + Alpelisib; first compound 0.25 µM)	relative viability (Trametinib + Linsitinib; first compound 0.0025 µM)	relative viability (Trametinib + Linsitinib; first compound 0.007906 µM)	relative viability (Trametinib + Linsitinib; first compound 0.025 µM)	relative viability (Trametinib + Linsitinib; first compound 0.07906 µM)	relative viability (Trametinib + Linsitinib; first compound 0.25 µM)	relative viability (Trametinib + Pictilisib; first compound 0.0025 µM)	relative viability (Trametinib + Pictilisib; first compound 0.007906 µM)	relative viability (Trametinib + Pictilisib; first compound 0.025 µM)	relative viability (Trametinib + Pictilisib; first compound 0.07906 µM)	relative viability (Trametinib + Pictilisib; first compound 0.25 µM)
H3255	0.512	0.334	0.288	0.238	0.346	0.684	0.566	0.503	0.41	0.317	1.02	0.822	0.795	0.855	0.575	0.436	0.344	0.334	0.237	0.206
Calu-6	–	–	–	–	–	0.974	0.414	0.231	0.156	0.16	0.951	0.719	0.35	0.15	0.124	0.739	0.45	0.193	0.136	0.121
SW 900	0.559	0.652	0.46	0.57	0.238	–	–	–	–	–	–	–	–	–	–	–	–	–	–	–
NCI-H650	0.573	0.615	0.541	0.445	0.356	1.31	1.42	1.38	1.35	0.71	1.08	0.93	0.861	0.787	0.456	1.05	1.18	0.998	0.919	0.565
NCI-H460	0.369	0.176	0.138	0.085	0.0431	0.417	0.146	0.115	0.0733	0.0121	0.656	0.265	0.153	0.0822	0.0212	0.302	0.23	0.156	0.125	0.0758
NCI-H2228	0.44	0.36	0.348	0.237	0.143	0.749	0.527	0.488	0.331	0.194	0.582	0.764	0.646	0.472	0.396	0.281	0.232	0.184	0.171	0.199
NCI-H2085	0.215	0.185	0.233	0.213	0.222	0.916	0.757	0.635	0.655	0.608	0.812	0.688	0.607	0.728	0.737	0.412	0.353	0.418	0.327	0.32
HCC-366	0.47	0.416	0.32	0.227	0.196	0.214	0.241	0.182	0.143	0.0782	0.538	0.288	0.196	0.133	0.116	0.09	0.138	0.102	0.1	0.0818
EPLC-272H	0.275	0.231	0.215	0.138	0.12	0.721	0.539	0.438	0.438	0.346	1.23	0.89	0.471	0.659	0.489	0.268	0.221	0.175	0.174	0.0951
201T	0.555	0.59	0.579	0.521	0.484	1.02	0.914	0.866	0.893	0.765	1.01	1.02	0.863	0.959	0.778	0.653	0.625	0.542	0.71	0.615
NCI-H3122	0.767	0.512	0.13	0.144	0.146	0.466	0.395	0.224	0.234	0.21	0.938	0.734	0.429	0.329	0.295	0.287	0.24	0.197	0.189	0.175
NCI-H838	0.251	0.322	0.214	0.27	0.249	0.97	0.877	–	0.709	0.551	0.912	0.867	–	0.754	0.528	0.351	0.415	–	0.319	0.281
NCI-H1650	0.337	0.368	0.344	0.298	0.16	–	–	–	–	–	–	–	–	–	–	0.608	0.61	0.448	0.364	0.113
NCI-H2342	0.298	0.28	–	0.3	0.303	–	–	–	–	–	–	–	–	–	–	–	–	–	–	–
NCI-H522	0.892	0.913	0.665	0.724	0.671	–	–	–	–	–	–	–	–	–	–	–	–	–	–	–
EBC-1	–	–	–	–	–	0.901	0.65	0.313	0.21	0.206	1	1.15	0.456	0.407	0.189	0.244	0.204	0.134	0.137	0.168
ChaGo-K-1	0.586	0.605	0.567	0.475	0.48	–	–	–	–	–	–	–	–	–	–	0.841	0.47	0.694	0.261	0.461
IA-LM	–	–	–	–	–	0.656	0.393	0.129	0.104	0.109	0.574	0.553	0.142	0.218	0.145	0.142	0.091	0.073	0.0818	0.0673
NCI-H1703	–	–	–	–	–	0.367	0.373	0.28	0.306	0.29	0.692	0.821	0.674	0.72	0.352	0.23	0.224	0.206	0.269	0.258
A549	–	–	–	–	–	0.6	0.37	0.206	0.158	0.0675	0.461	0.387	0.203	0.231	0.0933	0.375	0.237	0.179	0.121	0.072
HCC-44	–	–	–	–	–	0.774	0.618	0.614	0.528	0.187	0.734	0.592	0.334	0.43	0.321	0.581	0.428	0.276	0.291	0.272
NCI-H1623	0.487	0.449	0.306	0.378	0.618	–	–	–	–	–	–	–	–	–	–	–	–	–	–	–

— the supplement of paper PMC10307832
